Data taken from patent US12522596B2, “Compounds as GLP-1R agonists” (Terns Pharmaceuticals, Inc., priority 2021, dated 2026).
Like-named read-outs stand apart in the source and are kept apart here.

Experiment: Pharmacokinetics in hGLP-1R mice after oral dosing
Assay type: in vivo, male C57BL/6J hGLP-1R mouse
Details: male, C57BL/6J hGLP-1R, mouse, plasma, po; for AUC0-inf: read-out: AUC0-inf; for MRT inf: read-out: MRT0-inf; for MRT last: read-out: MRT0-last; for concentration at 120 min: hGLP-1R mouse plasma collected at 120 min (IPGTT cohort)
Procedure: IPGTT (120 min)—PK bleeding: 40 μL blood samples (all treatment groups) were collected from mice under the jaw at IPGTT-120 min after blood glucose measurement into pre-chilled EDTA-2K tubes. Blood samples were processed for plasma by centrifugation at 4° C., 3200×g for 10 min. 15 μL plasma was stored at −80° C. for PK analysis. From 4 mice in Group 7 of the PD cohort, whole brain was collected after blood is harvested at 120 min post dose, rinsed with saline and patted dry and placed into a pre-weighed tube and stored at −80° C. collected for PK analysis.
PK bleeding group design is described in Table 9.
PK bleeding: 30 μL blood was collected at 0.25, 0.5, 1, 2, 4, and 8 h. Blood samples were processed for plasma by centrifugation at 4° C., 3200×g for 10 min. 12 μL plasma was collected at −80° C. for further analysis. From 3 mice in Group 7 of the PK cohort, whole brain was collected after blood is harvested at 8 hr post dose, rinsed with saline and patted dry and placed into a pre-weighed tube and stored at −80° C. collected for PK analysis.
For plasma: An aliquot of 3 μL sample was protein precipitated with 60 μL internal standard (100 ng/mL Labetalol & 100 ng/ml Dexamethasone & 100 ng/ml Tolbutamide & 100 ng/mL Verapamil & 100 ng/ml Glyburide & 100 ng/ml Celecoxib in ACN) and then the mixture was vortex-mixed for 10 min at 800 rpm and centrifuged for 15 min at 3220×g, 4° C.
The linear/log trapezoidal rule was applied in obtaining the PK parameters. Individual plasma concentration values that were below the lower limit of quantitation (LOQ) were excluded from the PK parameter calculation. The nominal dose levels and nominal sampling times were used in the calculation of all pharmacokinetic parameters.

[1] = 0.3 mg/kg, hGLP-1R mouse plasma, PO 0.3 mg/kg, read-out: Mean Concentration
[2] = 0.3 mg/kg, hGLP-1R mouse plasma, PO 0.3 mg/kg, individual animals, read-out: Concentration
[3] = 0.3 mg/kg, hGLP-1R mouse plasma, PO 0.3 mg/kg, mean
[4] = 1 mg/kg, hGLP-1R mouse plasma, PO 1 mg/kg, individual animals, read-out: Concentration
[5] = 1 mg/kg, hGLP-1R mouse plasma, PO 1 mg/kg, read-out: Mean Concentration
[6] = 1 mg/kg, hGLP-1R mouse plasma, PO 1 mg/kg, individual mice
[7] = 1 mg/kg, hGLP-1R mouse plasma, PO 1 mg/kg, mean
[8] = 3 mg/kg, hGLP-1R mouse plasma, PO 3 mg/kg, read-out: Mean Concentration
[9] = 3 mg/kg, hGLP-1R mouse plasma, PO 3 mg/kg, mean

Compound: N#Cc1ccc(COc2cccc(C3CCN(Cc4nc5ccc(C(=O)O)cc5n4Cc4cncs4)CC3)n2)c(F)c1 [Compound 2]
- concentration at 0.5 h [1]: 80.6 ng/mL
- concentration at 1 h [2]: 43.3 ng/mL
- concentration at 1 h [1]: 49.4 ng/mL
- concentration at 2 h (0.3 mg/kg, hGLP-1R mouse plasma, PO 0.3 mg/kg): 10.6 ng/mL
- concentration at 4 h [1]: 3.74 ng/mL
- concentration at 8 h [2]: 2.34 ng/mL
- concentration at 8 h [1]: 1.99 ng/mL
- AUC0-inf (0.3 mg/kg, hGLP-1R mouse plasma, PO 0.3 mg/kg, individual mice): 124 ng·h/mL
- AUC(0-t) (0.3 mg/kg, hGLP-1R mouse plasma, PO 0.3 mg/kg, individual mice, read-out: AUC0-last): 117 ng·h/mL
- Cmax (0.3 mg/kg, hGLP-1R mouse plasma, PO 0.3 mg/kg, individual mice, read-out: Cmax): 63.4 ng/mL
- Tmax (0.3 mg/kg, hGLP-1R mouse plasma, PO 0.3 mg/kg, individual mice, read-out: Tmax): 0.5 h
- AUC0-inf [3]: 111 ng·h/mL
- AUC(0-t) (0.3 mg/kg, hGLP-1R mouse plasma, PO 0.3 mg/kg, mean, read-out: AUC0-last): 107 ng·h/mL
- Cmax (0.3 mg/kg, hGLP-1R mouse plasma, PO 0.3 mg/kg, mean, read-out: Cmax): 82.7 ng/mL
- MRT inf [3]: 1.7 h
- MRT last [3]: 1.4 h
- half-life (0.3 mg/kg, hGLP-1R mouse plasma, PO 0.3 mg/kg, mean, read-out: T1/2 (converted)): 1.4 h
- Tmax (0.3 mg/kg, hGLP-1R mouse plasma, PO 0.3 mg/kg, mean, read-out: Tmax): 0.417 h
- AUC(0-t) (1 mg/kg, hGLP-1R mice, total, PO 1.0 mg/kg, read-out: AUClast Mean): 390 ng·h/mL
- Cmax (1 mg/kg, hGLP-1R mice, total, PO 1.0 mg/kg, read-out: Cmax Mean): 283 ng/mL
- half-life (1 mg/kg, hGLP-1R mice, total, PO 1.0 mg/kg, read-out: T1/2 (converted)): 1.42 h
- Tmax (1 mg/kg, hGLP-1R mice, total, PO 1.0 mg/kg, read-out: Tmax Median): 0.5 h
- concentration at 120 min (1 mg/kg, PO 1 mg/kg, read-out: Mean Concentration): 69.8 ng/mL
- concentration at 0.25 h [4]: 320 ng/mL
- concentration at 0.25 h [5]: 251 ng/mL
- concentration at 0.5 h [4]: 329 ng/mL
- concentration at 0.5 h [5]: 283 ng/mL
- concentration at 1 h [4]: 252 ng/mL
- concentration at 1 h [5]: 197 ng/mL
- concentration at 2 h (1 mg/kg, hGLP-1R mouse plasma, PO 1 mg/kg): 48.6 ng/mL
- concentration at 4 h [4]: 7.58 ng/mL
- concentration at 4 h [5]: 7.51 ng/mL
- concentration at 8 h [5]: 4.73 ng/mL
- AUC0-inf [6]: 507 ng·h/mL
- AUC(0-t) (1 mg/kg, hGLP-1R mouse plasma, PO 1 mg/kg, individual mice, read-out: AUC0-last): 498 ng·h/mL
- Cmax (1 mg/kg, hGLP-1R mouse plasma, PO 1 mg/kg, individual mice, read-out: Cmax): 329 ng/mL
- MRT inf [6]: 1.47 h
- MRT last [6]: 1.32 h
- half-life (1 mg/kg, hGLP-1R mouse plasma, PO 1 mg/kg, individual mice, read-out: T1/2 (converted)): 1.28 h
- Tmax (1 mg/kg, hGLP-1R mouse plasma, PO 1 mg/kg, individual mice, read-out: Tmax): 0.5 h
- AUC0-inf [7]: 400 ng·h/mL
- AUC(0-t) (1 mg/kg, hGLP-1R mouse plasma, PO 1 mg/kg, mean, read-out: AUC0-last): 390 ng·h/mL
- Cmax (1 mg/kg, hGLP-1R mouse plasma, PO 1 mg/kg, mean, read-out: Cmax): 283 ng/mL
- MRT inf [7]: 1.57 h
- MRT last [7]: 1.35 h
- half-life (1 mg/kg, hGLP-1R mouse plasma, PO 1 mg/kg, mean, read-out: T1/2 (converted)): 1.42 h
- Tmax (1 mg/kg, hGLP-1R mouse plasma, PO 1 mg/kg, mean, read-out: Tmax): 0.5 h
- Tmax (3 mg/kg, hGLP-1R mice, oral, across the doses tested (0.3, 1 and, for Compound 2, 3 mg/kg), read-out: median Tmax): 0.5 h
- AUC(0-t) (3 mg/kg, hGLP-1R mice, total, PO 3.0 mg/kg, read-out: AUClast Mean): 2440 ng·h/mL
- Cmax (3 mg/kg, hGLP-1R mice, total, PO 3.0 mg/kg, read-out: Cmax Mean): 1820 ng/mL
- half-life (3 mg/kg, hGLP-1R mice, total, PO 3.0 mg/kg, read-out: T1/2 (converted)): 2.03 h
- Tmax (3 mg/kg, hGLP-1R mice, total, PO 3.0 mg/kg, read-out: Tmax Median): 0.5 h
- concentration at 120 min (3 mg/kg, PO 3 mg/kg, read-out: Mean Concentration): 277 ng/mL
- concentration at 0.25 h [8]: 1570 ng/mL
- concentration at 0.5 h [8]: 1790 ng/mL
- concentration at 1 h [8]: 990 ng/mL
- concentration at 2 h (3 mg/kg, hGLP-1R mouse plasma, PO 3 mg/kg): 304 ng/mL
- concentration at 4 h [8]: 84.4 ng/mL
- concentration at 8 h (3 mg/kg, hGLP-1R mouse plasma, PO 3 mg/kg, individual animals, read-out: Concentration): 92.1 ng/mL
- concentration at 8 h [8]: 47.5 ng/mL
- MRT last (3 mg/kg, hGLP-1R mouse plasma, PO 3 mg/kg, individual mice): 2.04 h
- Tmax (3 mg/kg, hGLP-1R mouse plasma, PO 3 mg/kg, individual mice, read-out: Tmax): 0.5 h
- AUC0-inf [9]: 2620 ng·h/mL
- AUC(0-t) (3 mg/kg, hGLP-1R mouse plasma, PO 3 mg/kg, mean, read-out: AUC0-last): 2440 ng·h/mL
- Cmax (3 mg/kg, hGLP-1R mouse plasma, PO 3 mg/kg, mean, read-out: Cmax): 1820 ng/mL
- MRT inf [9]: 2.64 h
- MRT last [9]: 1.66 h
- half-life (3 mg/kg, hGLP-1R mouse plasma, PO 3 mg/kg, mean, read-out: T1/2 (converted)): 2.03 h
- Tmax (3 mg/kg, hGLP-1R mouse plasma, PO 3 mg/kg, mean, read-out: Tmax): 0.417 h
- half-life (hGLP-1R male mice, oral, across doses, read-out: terminal T1/2): < 2 h
